Type in all cases: in vivo
Series [1] has as its system RSV A2. Briefly: Serum RSV neutralizing titers, naive cotton rats. The settings on record: day 42, naive cotton rats. As for the experimental part: RSV neutralizing antibody titers in heat-inactivated mouse sera at indicated timepoints were measured using a GFP-tagged RSV A2 micro-neutralization assay as previously described (Bernstein D I, et al. (2012) Phase 1 study of the safety and immunogenicity of a live, attenuated respiratory syncytial virus and parainfluenza virus type 3 vaccine in seronegative children. Pediatr Infect Dis J 31: 109-114). Briefly, confluent Vero cell monolayers were infected with 500 PFU of virus alone or virus pre-mixed with serially diluted serum samples, then incubated at 33° C. and 5% CO2 for 22 hrs. Plates were washed of free virus and GFP fluorescent viral foci were enumerated using the IsoCyte image scanner (Blueshift, Sunnyvale, Calif.).
Cotton rats are a well established model for RSV studies and are often used in the preclinical evaluation of potential RSV vaccine candidates. To confirm the immune profile of GLA-SE adjuvanted RSV sF vaccine in a second RSV challenge model, individual cotton rats were administered the same RSV sF subunit vaccines at similar doses used for mice. RSV sF at 0.3 μg without adjuvant or adjuvanted with GLA, SE, GLA-SE, or alum was given intramuscularly at days 0 and 22.

For series [2], the system named is IL-5, IL-13, IFNγ, IL-17, eotaxin. In words: Cytokines in lung homogenates after RSV challenge, naive BALB/c mice. Further details: pulmonary eotaxin levels (mean): unit not given here. As for the experimental part:
Lung homogenates were clarified by centrifugation prior to use. […] F-specific splenic cytokine production was determined by subtracting media alone values from F stimulated values.

In series [3] the test system is RSV A2. Briefly: Lung and nose viral titers by plaque assay after RSV challenge, naive cotton rats. The settings on record: 0.3 μg RSV sF IM, 4 days post challenge.
Series [4] relates to RSV-F-derived MHC I restricted peptide. In words: Granzyme B ELISPOT of splenocytes, naive BALB/c mice. The settings on record: splenocytes 4 days post challenge. An excerpt: FIGS. 1A-F are graphs showing immune responses to adjuvanted RSV sF vaccines in naïve BALB/c mice. Mice (N=7 per group) were immunized at days 0 and 14 with the indicated vaccines and challenged with 6 log10 PFU of RSV at day 28. Representative data shown from 1 of 2 experiments run with all groups. (A) Lung Viral Titers. Residual virus in the lungs of animals 4 days post challenge was quantified by plaque assay. Individual results are presented in log10, along with a bar representing the group geometric mean. Individuals with undetectable titers were scored at the assay limit of detection (LOD), ˜1.4 log10. (B) Serum RSV-GFP Neutralizing Titers. […] Individuals with undetectable titers were scored at the assay limit of detection (LOD) of 3.3 log2, indicated by a dashed line. […] Shown are the specific IFNγ, IL-5, IL-13, and IL-17 responses to an immunodominant MHC II restricted RSV-F peptide pool calculated by subtracting media control values from test values in multiplexed cytokine analysis. […] Day 28 sera (n=7 per group) were evaluated for F-specific IgG1 and IgG2a isotypes by endpoint titer ELISA. […]
Th1-type responses to a vaccine such as those seen with RSV sF+GLA-SE may support the development of strong CD8 T cell responses. […] To evaluate the cytolytic potential of these responding cells, we evaluated F-specific Granzyme B secretion by ELISPOT.

In series [5] the test system is F-derived CD8 peptide (KYKNAVTEL). In words: CD8 IFNγ ELISPOT of splenocytes, 1x RSV seropositive BALB/c mice. As for the experimental part: Systemic cellular immune responses to vaccination were evaluated in representative animals at Day 10 post vaccination. Additional representative animals were recalled with a viral challenge at Day 69 and evaluated for long-term cellular immune responses at Day 73, 4 days post viral challenge. For each of the groups, 3-5 individual splenocyte samples were prepared. CD4 T-cell readouts were assessed by multiplexed cytokine analysis of supernatant levels of a panel of secreted cytokines (including IFNγ, IL-5, IL-10, IL-13, and IL-17) following a 72-hour restimulation period with RSV sF. CD8 T-cell readouts were assessed by 2 methods: ELISPOT counts of IFNγ-secreting cells following a 36-48 hour restimulation period with an F-derived CD8 peptide ([…] aa 85-93) (SEQ ID NO: 12) and intracellular staining and quantification of the percentage of F-specific polyfunctional (IFNγ+ TNFα+IL-2+) CD8 T cells following a 5-hour restimulation period with the F-derived CD8 peptide.

Setting [6] is: lung homogenates 4 days post RSV challenge.

In the case of “RSV sF: RSV soluble F protein, amino acids 1-524 of the RSV A2 F sequence lacking the transmembrane domain, given without adjuvant”, the “RSV neutralizing titers (mean)” value in the series on RSV A2 [1] is on record as 4.3 log2. The “mean IFNγ to IL-5 ratio in lung homogenates” value in series [2] (4 days post RSV challenge, ratio >1.0 = more Th1-type) came to 0.3. In addition, in series [2] (setting [6]), the “IL-5 and IL-13 in the lungs” value was “detected”; the “pulmonary eotaxin levels (mean)” value was 911. In the series with RSV A2 [3], the “mean RSV titer in the lungs” value was found to be 5.4 log10 pfu/gram and the “mean RSV titer in the nose” value is 4.9 log10 pfu/gram. Besides, the “F-specific Granzyme B ELISPOT responses (mean)” value in series [4] stood at 18. For the same substance, the “F-specific CD8 IFNγ ELISPOT response” value in series [5] (Day 10 post vaccination, highest dose (10 μg) RSV sF) amounted to 224 SFU/million. Besides, the “F-specific CD8 IFNγ ELISPOT response (mean)” value in series [5] (Day 10 post vaccination, range across RSV sF doses 0.4-10 μg) is reported as 72-224 SFU/million. Besides, the “recall F-specific CD8 IFNγ ELISPOT response (means)” value in series [5] (Day 73, 4 days post RSV challenge, range across RSV sF doses) is 62-243 SFU/million.

These data come from patent US20160144021A1, “Vaccine Composition And Method Of Use” (MEDIMMUNE, LLC, priority 2013, published 2016).
